Results published in patent US20030175678A1, “Methods for identifying genes regulating desired cell phenotypes” (priority 2001, published 2003).

Key:
Assay type in all cases: cell-based
[1] = system: Ajuga reptans suspension culture; assay: Differential induction of diterpenes (Compound 6) in Ajuga reptans suspension culture; conditions: B49 production medium, treated day 7, harvested after a further seven days, n = 3
Experimental: Differential induction of diterpenoids in the Ajuga reptans suspension culture was performed by inoculating 500 mL conical flasks containing 190 mL of a secondary metabolite production medium B49 (Gamborg's B5, 5% sucrose, no hormones), with 70 mL of 14 day old suspension culture. The culture was incubated at 25° C. in continuous low light and shaken at 140 rpm. Cultures were grown for seven days (25° C. in continuous low light and shaken at 140 rpm) and then dispensed as 5 mL aliquots to 6-well plates (Bibby Sterilin Ltd, Stone, UK). Cultures were then treated using one of the following protocols:
Triplicate samples were set up for each treatment. Cultures were incubated for a further seven days before harvest for extraction and analysis of diterpenoids.
Cultures were harvested by freezing entire 6-well plates at −20° C. and then freeze-drying cultures in situ. […] After standing for one hour 500 μL of filtered methanol extract was removed and immediately analyzed.
HPLC analysis was carried out using an Xterra RP 18 column (dimensions 3×150 mm with 5 μm packing) using an isocratic solvent system of water (two volumes): acetonitrile (three volumes) to which has been added 0.1% acetic acid. […] The eluate was monitored by UV absorption. The principal diterpene metabolite (Compound 6) has UV absorption maxima at 230, 290 and 340 nm and can be sensitively monitored at any of these wavelengths. […]

[2] = system: taxadiene synthase; assay: PCR of taxadiene synthase in Taxus baccata callus cultures; conditions: callus harvested 24 and 48 hours after treatment, 20-25 PCR cycles
Experimental: Callus was harvested 24 and 48 hours after treatment. An untreated control was also harvested. Samples (500 mg) were frozen in liquid nitrogen and ground to a fine powder. RNA was prepared with an RNEASY™ kit (Qiagen, Valencia, Calif.) as described above.
RNA samples (1.75 μg) from 24 hours post-treatment cultures of Taxus baccata were reverse transcribed using an OMNISCRIPT™ RT kit (Qiagen) with an oligo-dT12-18 primer (Sigma-Aldrich Company, Poole, Dorset, UK). Aliquots (≡0.175 μg RNA) were subject to PCR using a Taq PCR Master Mix kit (Qiagen). Primers were designed from conserved regions of the taxadiene synthases from Taxus chinensis and Taxus brevifolia, and validated by amplification of DNA from Taxus baccata. PCR was carried out at an annealing temperature of 50° C. for 30′; extension was for 1 min at 72° C. Samples were taken after 15, 20, 25, and 30 cycles and run on an agarose gel (FIG. 13). After 20 cycles, a band of the expected size is present in the treated samples (slightly more in the 24 hour harvest) but not in the control.

[3] = system: terpene cyclases; assay: PCR with degenerate terpene cyclase primers in Ajuga reptans cultures; conditions: 24 hour post-treatment cultures
[4] = system: S. tectorum suspension culture; assay: Catechin profiling in Sempervivum tectorum suspension culture; conditions: B49 medium, added on day 7
Experimental: Catechin derivative profiles in the S. tectorum suspension culture were obtained from incubations in 250 mL conical flasks containing either 100 mL of B88 growth medium or 100 mL of a secondary metabolite production medium B49 (Gamborg's B5 modified to contain 5% sucrose and no hormones) inoculated with 40 mL of 21 day old suspension culture. The cultures were incubated under low light conditions (approximately 30 lux) at 25° C.
Ten milliliters of culture samples were taken at regular intervals for 16 days following the day of subculture to B88 or B49 medium. All culture samples were centrifuged for five minutes at 4000 rpm and the supernatant liquid was removed and frozen. The cell residue was freeze-dried. Extraction, sample preparation, and HPLC analysis were performed as described in Example 1.

- PCR band of first degenerate primer combination [3]: induced
SMILES: CC/C=C\CC1C(=O)CCC1CC(=O)OC (centres unmarked) [methyl jasmonate]
- Compound 6 (mg/L culture) Mean [1]: 9.52 mg/L culture
- induction of taxadiene cyclase [2]: specific induction of the taxadiene cyclase
- PCR band of second degenerate primer combination (candidate cyclase for compound 6) [3]: not
- catechin level [4]: no further increase in catechin level
